Results on 15 compounds are retold here after patent US5232924A, “Heterocyclic compound having serotonine 2-receptor antagonistic activity” (Daiichi Pharmaceutical Co., Ltd., priority 1989, dated 1993).

The target of one data set is T1, Serotonin 2-Receptor (Rattus norvegicus, UniProt P14842).
T1 construct: from tissue; host or cells: intact anesthetized SD-SLC male rat (vascular response)
In words: Antagonistic activity on serotonin 2-receptor: inhibition of the serotonin-induced increase in blood pressure in anesthetized rats. The data set is classed as in vivo. The conditions noted are these: SD-SLC male rat, 10 mg/kg p.o.; after 60 minutes from the administration; inhibition of blood pressure increase by serotonin 300 μg/kg i.v. The method, then: A test compound dissolved in purified water was orally administered to an SD-SLC male rat at a dose of 10 mg/kg. After 30 minutes from the administration, the rat was anesthetized with urethane (1 g/kg, i.p.) and α-Chloralose (80 mg/kg, i.p.). A polyethylene cannula was inserted into the carotid artery, and the blood pressure was recorded on a polygraph by using a pressure transducer. After 60 minutes or 180 minutes from the administration of the test compound, 300 μg/kg of serotonin was intravenously injected, and an increase in blood pressure was observed. Serotonin 2 (hereinafter referred to as […]) antagonistic activity of the test compound was calculated as a percentage of inhibition of an increase in blood pressure induced by […]. The inhibitory effect of the test compound wa compared with that of vehicle solution treated group.

The subject of another data set is ddy male mice. As to the kind of experiment: Toxicity in mice, repeated oral administration. The data set is classed as in vivo, mouse. The method, then:
A test compound dissolved or suspended in a 1% methyl cellulose solution was orally administered to ddy male mice (4 or 5 mice per group) at a dose of 200 mg/kg once a day for consecutive 4 days. The number of dead animals per group was counted on the day next to the final administration day. As a control, 10 mλ/kg of 1% methyl cellulose solution was orally administered.

For data set [1], the system named is Sympathetic Nerve α1 -Receptor. As to the kind of experiment: Antagonistic activity on sympathetic nerve α1-receptor: inhibition of the phenylephrine-induced increase in blood pressure in anesthetized rats. The conditions noted are these: SD-SLC male rat, 10 mg/kg p.o.; after 60 minutes from the administration; inhibition of blood pressure increase by phenylephrine 100 μg/kg i.v. Type of data set: in vivo. The method, then: A test compound dissolved in purified water was orally administered to an SD-SLC male rat at a dose of 10 mg/kg. After 30 minutes from the administration, the rat was anesthetized with urethane (1 g/kg, i.p.) and α-Chloralose (80 mg/kg, i.p.). A polyethylene cannula was inserted into the carotid artery, and the blood pressure was recorded on a polygraph by using a pressure transducer. After 60 minutes from the administration of the test compound, 100 μg/kg of phenylephrine was intravenously injected to observe an increase in blood pressure. Sympathetic nerve α1 -receptor antagonistic activity of the test compound was calculated as a percentage of inhibition of an increase in blood pressure induced by phenylephrine. The inhibitory effect of the test compound was compared with that of vehicle solution treated group.

The test system of data set [2] is Mongrel dogs. As to the kind of experiment: Acute cardiac infarction model: LDA ligature and reperfusion in dogs. The data set is classed as in vivo. The conditions noted are these: dog, 1 mg/kg/hr intravenous drip, mean ± S.E.M. The method, then: Mongrel dogs (body weight: 8 to 20 kg) under anesthesia were ventilated artificially and underwent a left thracotomy. […] A polyethylene cannula was inserted into the femoral artery, and the blood pressure and heart rate were recorded A cannula was inserted into the […] of a drug and also into the carotid artery from which a blood sample was to be taken. After stabilization period of the test preparation, LDA was ligated with a clamp. After 2 hours from the ligature, the clamp was released for reperfusion. After observation for the following 4 hours, the heart was excised. […] Then, the heart was washed and sliced at 1 cm intervals from the apex in the direction vertical to the longer axis. Each slice at the left ventricle was divided into a part which was in risk of cardiac infarction indicated by Evans' Blue stain (hereinafter referred to as risk area) and a normal area, and each area was weighed. The weight of the left ventricle (the sum of the risk area and the normal area) and that of the risk area of each slice were individually added up to obtain the weight of the whole left ventricle and the total weight of the risk area. Further, of each slice, the area of the risk area which was not stained with Evans' Blue and that of a cardiac infarction area within the risk area which remained white, i.e., which was stained neither in blue with Evans' Blue nor in red with triphenyltetrazolium chloride, were measured to obtain a ratio of cardiac infarction part to the whole left ventricle (infarction size). […] The experiment was conducted for the following groups.

For data set [3], the system named is Mongrel dogs. As to the kind of experiment: Angina pectoris model: partial LDA occlusion with cyclic coronary flow reduction in dogs. Type of data set: in vivo. The conditions noted are these: dog, 0.1 mg/kg i.v. (maleate); mean ± S.E.M.; before admin. 9.9 ± 2.5. The method, then:
Mongrel dogs (body weight: 8 to 20 kg) under anesthesia with pentobarbital (30 mg/kg, i.v.) were ventilated artificially and underwent a left thoracotomy. LDA was separated from connected tissues. A silicone tube for partial occlusion was placed around the LDA, and a probe for blood flow rate measurement was fixed in the neighborhood. The blood flow rate was measured with a pulse Doppler blood flow meter. A cannula was inserted into a branch distal to the occlusion site of the left coronary artery, and the coronary blood pressure was measured. A polyethylene cannula was inserted into the femoral artery, and the systemic blood pressure and heart rate were recorded. A cannula was inserted to the femoral vein for administration of a drug.
The effect of the drug was expressed in terms of frequency of the periodic reduction of blood flow rate.

The next data set has as its system rats. In words: Toxicity in rats, oral administration for 10 days. Type of data set: in vivo, rat. To be noted: 5 test animals.
Where [4] appears, read: ddy male mice, 200 mg/kg p.o. once a day for consecutive 4 days, dead animals per group.

Where a name gives a salt, the structure may show the parent alone.

T1 sequence (P14842 whole entry): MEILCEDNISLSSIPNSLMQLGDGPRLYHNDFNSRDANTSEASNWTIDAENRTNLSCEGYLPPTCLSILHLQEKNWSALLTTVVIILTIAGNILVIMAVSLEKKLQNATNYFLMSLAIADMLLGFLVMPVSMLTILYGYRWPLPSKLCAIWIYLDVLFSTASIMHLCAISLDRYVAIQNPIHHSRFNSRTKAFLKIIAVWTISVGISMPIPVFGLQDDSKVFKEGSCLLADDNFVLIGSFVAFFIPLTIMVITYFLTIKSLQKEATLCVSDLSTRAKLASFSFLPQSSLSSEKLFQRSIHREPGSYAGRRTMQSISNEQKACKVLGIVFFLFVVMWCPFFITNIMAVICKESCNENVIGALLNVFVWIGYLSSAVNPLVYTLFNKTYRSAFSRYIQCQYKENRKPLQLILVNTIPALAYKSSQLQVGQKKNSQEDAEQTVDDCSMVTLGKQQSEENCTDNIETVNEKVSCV

In the case of `Cc1nc2sccn2c(=O)c1CCN1CCC(=C(c2ccc(F)cc2)c2ccc(F)cc2)CC1` [Ritanserin, reference compound], the “Antagonistic Activity 5-HT2 (%)” value at Serotonin 2-Receptor was 84%. For the same compound, the “Toxicity (Death Rate)” value in the data set with ddy male mice (setting [4]) is 3/5. Further, the “Antagonistic Activity α1 (%)” value in data set [1] came to 5%.

Take `Cl.O=C(c1ccc(F)cc1)C1CCN(CCn2c(=O)nc3n(c2=O)CCCC3)CC1` [Example 2, 3-[2-[4-(4-Fluorobenzoyl)piperidin-1-yl]ethyl]-6,7,8,9-tetrahydro-2H-pyrido[1,2-a]-1,3,5-triazine-2,4(3H)-dione Hydrochloride]: the “Antagonistic Activity 5-HT2 (%)” value on Serotonin 2-Receptor came out at 93%. Besides, the “Myocardial Blood Flow” value in the data set on Mongrel dogs [2] (after 2 h ligature and reperfusion, control 62 ± 9) worked out at 89 ± 14 ml/min/100 g. Moreover, in the data set with Mongrel dogs [2] (ratio of cardiac infarction part to the whole left ventricle, control 30 ± 7), the “Infarction Size (%)” value is recorded as 11 ± 3%. Moreover, the “Toxicity (Death Rate)” value in the data set on ddy male mice (setting [4]) is recorded as 1/5. Moreover, in data set [1], the “Antagonistic Activity α1 (%)” value was 9%.

On to `O=C(O)/C=C\C(=O)O.O=C(c1ccc(F)cc1)[C@@H]1CCN(CCn2nc3n(c2=O)CCCC3)C[C@H]1c1ccc(F)cc1` (relative stereo) [Example 67, 2-[2-[trans-3-(4-Fluorophenyl)-4-(4-fluorobenzoyl)piperidin-1-yl]ethyl]-5,6,7,8-tetrahydro-3H-1,2,4-triazolo[4,3-a]pyridin-3(2H)-one Maleate], for which the “Antagonistic Activity 5-HT2 (%)” value on Serotonin 2-Receptor came to 90%. The “Antagonistic Activity α1 (%)” value in data set [1] stood at 4%.

For the compound `O=c1nc2sccn2c(=O)n1CCN1CCC(=C(c2ccc(F)cc2)c2ccc(F)cc2)CC1` [Example 21, 3-[2-[4-[Bis(4-fluorophenyl)methylene]piperidin-1-yl]ethyl]-2H-thiazolo-[3.2-a]-1,3,5-triazine-2,4(3H)-dione Hydrochloride], the “Antagonistic Activity 5-HT2 (%)” value at Serotonin 2-Receptor turned out to be 93%. The “Antagonistic Activity α1 (%)” value in data set [1] worked out at 3%.

As for `O=C(c1ccc(F)cc1)C1CCN(CCn2c(=O)nc3n(c2=O)CCCC3)CC1` [Example 3, 3-[2-[4-(4-Fluorobenzoyl)piperidin-1-yl]ethyl]-6,7,8,9-tetrahydro-2H-pyrido1,2-a]-1,3,5-triazine-2,4(3H)-dione Maleate], the “Frequency of Periodic Reduction in Blood Flow Rate, After Admin.” value in the data set on Mongrel dogs [3] stood at 2.3 ± 1.2. Also, the “Antagonistic Activity 5-HT2 (%)” value on Serotonin 2-Receptor came out at 93%. Besides, the “Number of Dead Animals” value in the data set with rats (50 mg/kg (p.o.)), in the data set on rats (200 mg/kg (p.o.)) and in the data set on rats (800 mg/kg (p.o.)) was 0 each time. Also, in the data set on ddy male mice (setting [4]), the “Toxicity (Death Rate)” value is 0/5. Also, in data set [1], the “Antagonistic Activity α1 (%)” value came to 39%.

`O=C(c1ccc(F)cc1)C1CCN(CCn2c(=O)[nH]c3ccccc3c2=O)CC1` [Ketanserin, reference compound]: at Serotonin 2-Receptor, the “Antagonistic Activity 5-HT2 (%)” value is given as 96%. In addition, the “Toxicity (Death Rate)” value in the data set with ddy male mice (mouse, in vivo, po, 200 mg/kg) is 5/5. Moreover, the “Antagonistic Activity α1 (%)” value in data set [1] is 73%.

In the case of `Cl.O=C(c1ccc(F)cc1)C1(O)CCN(CCn2nc3n(c2=O)CCCC3)CC1` [Example 63, 2-[2-[4-(4-Fluorobenzoyl)-4-hydroxypiperidin-1-yl]ethyl]-5,6,7,8-tetrahydro-1,2,4-triazolo[4,3-a]pyridin-3(2H)-one Hydrochloride], on Serotonin 2-Receptor, the “Antagonistic Activity 5-HT2 (%)” value worked out at 85%. In addition, the “Antagonistic Activity α1 (%)” value in data set [1] was 0%.

On to `Cl.O=C(c1ccc(F)cc1)C1CCN(CCn2nc3n(c2=O)CCCC3)CC1` [Example 51, 2-[2-[4-(4-Fluorobenzoyl)piperidin-1-yl]ethyl]-5,6,7,8-tetrahydro-1,2,4-triazolo[4,3-a]-pyridin-3(2H)-one Hydrochloride], for which the “Antagonistic Activity 5-HT2 (%)” value on Serotonin 2-Receptor came out at 95%. In the data set with ddy male mice (setting [4]), the “Toxicity (Death Rate)” value was 0/5. In data set [1], the “Antagonistic Activity α1 (%)” value was 3%.

Regarding `O=C(c1ccc(F)cc1)C1(O)CCN(CCn2c(=O)nc3n(c2=O)CCCC3)CC1` [Example 11, 3-[2-[4-(4-Fluorobenzoyl)-4-hydroxy-piperidin-1-yl]ethyl]-6,7,8,9-tetrahydro-2H-pyrido[1,2-a-]-1,3,5-triazine-2,4(3H)-dione Dihydrochloride Hemihydrate], the “Antagonistic Activity 5-HT2 (%)” value at Serotonin 2-Receptor was 83%. Further, the “Antagonistic Activity α1 (%)” value in data set [1] is recorded as 0%.

As to `CCO.Cl.O=c1n(CCN2CCC(=C(c3ccccc3)c3ccc(F)cc3)CC2)nc2n1CCCCC2` [Example 36, 2-[2-[4-[(4-Fluorophenyl)(phenyl)methylene]piperidin-1-yl]ethyl]-2,5,6,7,8,9-hexahydro-3H-1,2,4-triazolo[4,3-a]azepin-3-one Hydrochloride Ethanolate], the “Antagonistic Activity 5-HT2 (%)” value on Serotonin 2-Receptor was found to be 84%. In the data set on ddy male mice (setting [4]), the “Toxicity (Death Rate)” value was 0/5. Further, in data set [1], the “Antagonistic Activity α1 (%)” value turned out to be 3%.

Consider `O=c1n(CCN2CCC(=C(c3ccc(F)cc3)c3ccc(F)cc3)CC2)nc2n1CCCCC2` [Example 34, 2-[2-[4-[Bis(4-fluorophenyl)methylene]piperidin-1-yl]ethyl]-2,5,6,7,8,9-hexahydro-3H-1,2,4-triazolo[4,3-a]azepin-3-one Hydrochloride Hemihydrate], for which the “Antagonistic Activity 5-HT2 (%)” value at Serotonin 2-Receptor turned out to be 90%. Besides, the “Toxicity (Death Rate)” value in the data set on ddy male mice (setting [4]) was 1/4. For the same compound, the “Antagonistic Activity α1 (%)” value in data set [1] was 3%.

On to `O=C(c1ccc(Cl)cc1)C1CCN(CCn2nc3n(c2=O)CCCC3)CC1` [Example 75, 2-[2-[4-(4-Chlorobenzoyl)piperidin-1-yl]ethyl]-5,6,7,8-tetrahydro-1,2,4-triazolo[4,3-a]pyridin-3(2H)-one Hydrochloride], for which the “Antagonistic Activity 5-HT2 (%)” value at Serotonin 2-Receptor came out at 83%. For the same compound, the “Toxicity (Death Rate)” value with ddy male mice (setting [4]) was 0/3. In data set [1], the “Antagonistic Activity α1 (%)” value is given as 17%.

On to `O=c1n(CCN2CCC(=C(c3ccc(F)cc3)c3ccc(F)cc3)CC2)nc2n1CCCO2` [Example 44, 2-[2-[4-Bis(4-fluorophenyl)methylene]piperidin-1-yl]ethyl]-6,7-dihydro-5H-1,2,4-triazolo[3.4-b1-1,3-oxazin-3(2H)-one Hydrochloride Hemihydrate], for which the “Antagonistic Activity 5-HT2 (%)” value on Serotonin 2-Receptor was determined as 89%. In the data set on ddy male mice (setting [4]), the “Toxicity (Death Rate)” value is on record as 2/5. In addition, the “Antagonistic Activity α1 (%)” value in data set [1] is 2%.

On to `Cl.Cl.O=c1nc2n(c(=O)n1CCN1CCC(=C(c3ccc(F)cc3)c3ccc(F)cc3)CC1)CCCC2` [Example 18, 3-[2-[4-[Bis(4-fluorophenyl)methylene]-piperidin-1-yl]ethyl]-6,7,8,9-tetrahydro-2H-pyrido-[1,2-a]-1,3,5-triazine-2,4(3H)-dione Dihydrochloride], for which, at Serotonin 2-Receptor, the “Antagonistic Activity 5-HT2 (%)” value came out at 93%. For the same compound, the “Toxicity (Death Rate)” value in the data set on ddy male mice (setting [4]) is 0/5. Moreover, the “Antagonistic Activity α1 (%)” value in data set [1] amounted to 6%.

Regarding `Cl.Cl.O=c1nc2n(c(=O)n1CCN1CCC(=C(c3ccc(F)cc3)c3ccc(F)cc3)CC1)CCC2` [Example 20, 3-[2-[4-[Bis(4-fluorophenyl)methylene]-piperidin-1-yl]ethyl]-7,8-dihydro-2H,6H-pyrrolo[1,2-a]-1,3,5-triazine-2,4(3H)-dione Dihydrochloride], at Serotonin 2-Receptor, the “Antagonistic Activity 5-HT2 (%)” value stood at 83%. Moreover, in data set [1], the “Antagonistic Activity α1 (%)” value turned out to be 1%.
